The text below walks through data of patent US20080096848A1, “Substituted N-Aryl-9-Oxo-9H-Fluorene-1-Carboxamides and Analogs as Activators of Caspases and Inducers of Apoptosis” (CYTOVIA INC., priority 2004, published 2008).

Where two headings read alike, the source gives them in different places.

The test system of the experiment is T-47D. Briefly: Caspase cascade activation assay (Ac-DEVD-R110 fluorogenic substrate) in T-47D cells. In kind it is cell-based, Human. Particulars: 24 h incubation; for Caspase activity (Ratio): ratio of net RFU (T=3 h) of test compound to control, 0.16 to 10 μM final; for EC50: sigmoidal dose-response, read-out: Caspase potency EC50. The method, then:
Human breast cancer cell lines T-47D was grown according to media component mixtures designated by American Type Culture Collection+10% FCS (Invitrogen Corporation), in a 5% CO2-95% humidity incubator at 37° C. T-47D and ZR-75-1 cells were maintained at a cell density between 30 and 80% confluency and for HL-60 at a cell density of 0.1 to 0.6×10^6 cells/mL. Cells were harvested at 600×g and resuspended at 0.65×10^6 cells/mL into appropriate media+10% FCS. An aliquot of 45 μL of cells was added to a well of a 96-well microtiter plate containing 5 μL of a 10% DMSO in RPMI-1640 media solution containing 1.6 to 100 μM of N-(2-methylphenyl)-9-oxo-9H-fluorene-1-carboxamide or other test compound (0.16 to 10 μM final). An aliquot of 45 μL of cells was added to a well of a 96-well microtiter plate containing 5 μL of a 10% DMSO in RPMI-1640 media solution without test compound as the control sample. The samples were mixed by agitation and then incubated at 37° C. for 24 h in a 5% CO2-95% humidity incubator. After incubation, the samples were removed from the incubator and 50 μL of a solution containing 20 μM of N—(Ac-DEVD)-N′-ethoxycarbonyl-R110 fluorogenic substrate (SEQ ID NO:1) (Cytovia, Inc.; U.S. Pat. No. 6,335,429), 20% sucrose (Sigma), 20 mM DTT (Sigma), 200 mM NaCl (Sigma), 40 mM Na PIPES buffer pH 7.2 (Sigma), and 500 μg/mL lysolecithin (Calbiochem) was added. The samples were mixed by agitation and incubated at room temperature. Using a fluorescent plate reader (Model 1420 Wallac Instruments), an initial reading (T=0) was made about 1-2 min after addition of the substrate solution, employing excitation at 485 nm and emission at 530 nm, to determine the background fluorescence of the control sample. After about 3 h of incubation, the samples were read for fluorescence as above (T=3 h).
The Relative Fluorescence Unit values (RFU) were used to calculate the sample readings as follows: RFU(T=3h)−Control RFU(T=0)=Net RFU(T=3h)
The activity of caspase cascade activation was determined by the ratio of the net RFU value for N-(2-methylphenyl)-9-oxo-9H-fluorene-1-carboxamide and other test compounds to that of control samples. The EC50 (nM) was determined by a sigmoidal dose-response calculation (Prism 2.0, GraphPad Software Inc.).

Consider `O=C(Nc1ccccc1N1CCOCC1)c1cccc2c1C(=O)c1ccccc1-2` [Example 1, N-(2-Morpholinophenyl)-9-oxo-9H-fluorene-1-carboxamide], for which the “Caspase activity (Ratio)” value is reported as 3.1. Also, for the setting “Homo sapiens, T47D, 24 h”, the EC50 – broadly, the concentration that produces a half-maximal response – stood at 5.67 µM.

Regarding `O=C(Nc1ccccc1-n1cccc1)c1cccc2c1C(=O)c1ccccc1-2` [Example 2, N-(2-(1H-Pyrrolo-1-yl)-phenyl)-9-oxo-9H-fluorene-1-carboxamide], the “Caspase activity (Ratio)” value is 4.2 and the EC50 stood at 2.23 µM.

Regarding `O=C(Nc1ccccc1N1CCCCC1)c1cccc2c1C(=O)c1ccccc1-2` [Example 3, 9-Oxo-N-(2-(piperidin-1-yl)-phenyl)-9H-fluorene-1-carboxamide], the “Caspase activity (Ratio)” value stood at 7.4. Further, the EC50 (Homo sapiens, T47D, 24 h) is 1.92 µM.

On to `O=C(Nc1ccccc1-n1ccnc1)c1cccc2c1C(=O)c1ccccc1-2` [Example 4, N-(2-(1H-Imidazol-1-yl)-phenyl)-9-oxo-9H-fluorene-1-carboxamide], for which the “Caspase activity (Ratio)” value is recorded as 1.4. The EC50 (Homo sapiens, T47D, 24 h) was > 10 µM.

Consider `O=C(Nc1ccccn1)c1cccc2c1C(=O)c1ccccc1-2` [Example 5, 9-Oxo-N-(pyridin-2-yl)-9H-fluorene-1-carboxamide], for which the “Caspase activity (Ratio)” value is listed as 1.2. Besides, for the setting “Homo sapiens, T47D, 24 h”, the EC50 is > 10 µM.

For `O=C(Nc1ccccc1)c1cccc2c1C(=O)c1ccccc1-2` [Example 6, 9-Oxo-N-phenyl-9H-fluorene-1-carboxamide], the “Caspase activity (Ratio)” value was 1.9. The half-maximal effective concentration (EC50) (Homo sapiens, T47D, 24 h) is > 10 µM.

With `Cc1cccc(C)c1NC(=O)c1cccc2c1C(=O)c1ccccc1-2` [Example 7, N-(2,6-Dimethylphenyl)-9-oxo-9H-fluorene-1-carboxamide], the “Caspase activity (Ratio)” value amounted to 1.4. Further, the EC50 (Homo sapiens, T47D, 24 h) is > 10 µM.

As to `O=C(Nc1ccccc1-c1nnn[nH]1)c1cccc2c1C(=O)c1ccccc1-2` [Example 8, N-(2-(1H-tetrazol-5-yl)phenyl)-9-oxo-9H-fluorene-1-carboxamide], the “Caspase activity (Ratio)” value was 1.1. For the same compound, the concentration for a half-maximal effect (EC50) (Homo sapiens, T47D, 24 h) was > 10 µM.

For the compound `Cc1cccnc1NC(=O)c1cccc2c1C(=O)c1ccccc1-2` [Example 11, N-(3-Methylpyridin-2-yl)-9-Oxo-9H-fluorene-1-carboxamide], the “Caspase activity (Ratio)” value is recorded as 1.2. In addition, the EC50 (Homo sapiens, T47D, 24 h) is > 10 µM.

In the case of `O=C(Nc1ccccc1CBr)c1cccc2c1C(=O)c1ccccc1-2` [Example 14, N-(2-Bromomethylphenyl)-9-oxo-9H-fluorene-1-carboxamide], the “Caspase activity (Ratio)” value is listed as 5.7. For the same compound, the EC50 (Homo sapiens, T47D, 24 h) is 2.88 µM.

`O=C(Nc1ccccc1-n1cccn1)c1cccc2c3c([nH]c12)CCCC3` [Example 16, N-(2-(1H-pyrazol-1-yl)phenyl)-6,7,8,9-tetrahydro-5H-carbazole-1-carboxamide]: the “Caspase activity (Ratio)” value is 0.8. For the same compound, the 50% effective concentration (EC50) (Homo sapiens, T47D, 24 h) is > 10 µM.

Turning to `Cc1ccccc1N(C)C(=O)c1cccc2c1C(=O)c1ccccc1-2` [Example 17, N-Methyl-N-(2-methylphenyl)-9-oxo-9H-fluorene-1-carboxamide], the “Caspase activity (Ratio)” value came to 1.4. Further, the half-maximal effective concentration (EC50) (Homo sapiens, T47D, 24 h) was > 10 µM.

Consider `CC1CCCCC1NC(=O)c1cccc2c1C(=O)c1ccccc1-2` (stereo not shown) [Example 18, N-(2-Methylcyclohexyl)-9-oxo-9H-fluorene-1-carboxamide], for which the “Caspase activity (Ratio)” value turned out to be 1.8. Besides, the 50% effective concentration (EC50) (Homo sapiens, T47D, 24 h) is > 10 µM.

On to `O=C(Nc1ccccc1-n1cccn1)c1cccc2c1OCC2` [Example 19, N-(2-(1H-pyrazol-1-yl)phenyl)-2,3-dihydrobenzofuran-7-carboxamide], for which the “Caspase activity (Ratio)” value came out at 0.9. Moreover, where the note is “Homo sapiens, T47D, 24 h”, the EC50 was > 10 µM.

Consider `Cc1ccncc1NC(=O)c1cccc2c1C(=O)c1ccccc1-2` [Example 21, N-(4-Methylpyridin-3-yl)-9-oxo-9H-fluorene-1-carboxamide], for which the “Caspase activity (Ratio)” value came to 0.8. Moreover, the 50% effective concentration (EC50) (Homo sapiens, T47D, 24 h) is > 10 µM.

For `CN1CCN(Cc2ccccc2NC(=O)c2cccc3c2C(=O)c2ccccc2-3)CC1` [Example 22, N-(2-(4-Methylpiperazin-1-yl-methyl)phenyl)-9-oxo-9H-fluorene-1-carboxamide], the “Caspase activity (Ratio)” value was 1.0. For the setting “Homo sapiens, T47D, 24 h”, the EC50 was > 10 µM.

With `O=C(Nc1ccccc1-n1cccn1)c1cccc2oc3ccccc3c12` [Example 23, N-(2-(1H-pyrazol-1-yl)phenyl)-dibenzofuran-1-carboxamide], the “Caspase activity (Ratio)” value turned out to be 1.1. Further, under “Homo sapiens, T47D, 24 h”, the EC50 was > 10 µM.

With `CN(C)Cc1ccccc1NC(=O)c1cccc2c1C(=O)c1ccccc1-2.Cl` [Example 24, N-(2-Dimethylaminomethyl-phenyl)-9-oxo-9H-fluorene-1-carboxamide Hydrochloride], the “Caspase activity (Ratio)” value was found to be 1.8. Besides, the EC50 (Hydrochloride) is > 10 µM.

For `O=C(Nc1ccccc1[N+](=O)[O-])c1cccc2c1C(=O)c1ccccc1-2` [Example 25, N-(2-Nitrophenyl)-9-oxo-9H-fluorene-1-carboxamide], the “Caspase activity (Ratio)” value came out at 2.2. Moreover, the EC50 (Homo sapiens, T47D, 24 h) is 2.51 µM.

For `Nc1ccccc1NC(=O)c1cccc2c1C(=O)c1ccccc1-2` [Example 26, N-(2-Amino-phenyl)-9-oxo-9H-fluorene-1-carboxamide], the “Caspase activity (Ratio)” value is listed as 1.2. Moreover, where the note is “Homo sapiens, T47D, 24 h”, the concentration giving a half-maximal response (EC50) was > 10 µM.

Take `Nc1ccc2c(c1)C(=O)c1c(C(=O)Nc3ccccc3-n3cccn3)cccc1-2` [Example 30, 7-Amino-N-(2-(1H-pyrazol-1-yl)phenyl)-9-oxo-9H-fluorene-1-carboxamide]: the “Caspase activity (Ratio)” value is reported as 4.4. Besides, the half-maximal effective concentration (EC50) (Homo sapiens, T47D, 24 h) came to 0.881 µM.

`O=C(Nc1ccccc1-n1cccn1)c1ccc([N+](=O)[O-])c2c1C(=O)c1cc([N+](=O)[O-])ccc1-2` [Example 31, 4,7-Dinitro-N-(2-(1H-pyrazol-1-yl)phenyl)-9-oxo-9H-fluorene-1-carboxamide]: the “Caspase activity (Ratio)” value is on record as 2.3. Besides, the concentration giving a half-maximal response (EC50) (Homo sapiens, T47D, 24 h) was 6.05 µM.

For `O=C(Nc1ccccc1-n1cccn1)c1cccc2c1-c1ccccc1S2(=O)=O` [Example 33, 9,9-Dioxo-N-(2-(1H-pyrazol-1-yl)phenyl)-dibenzothiophene-1-carboxamide], the “Caspase activity (Ratio)” value is reported as 1.6 and the EC50 was > 10 µM.

On to `O=C(Nc1ccccc1-n1cccn1)c1cccc2sc3c(c12)C(=O)CC=C3` [Example 34, 9-Oxo-N-(2-(1H-pyrazol-1-yl)phenyl)-dibenzothiophene-1-carboxamide], for which the “Caspase activity (Ratio)” value is on record as 1.2. Further, the EC50 (Homo sapiens, T47D, 24 h) was > 10 µM.

Regarding `O=C(Nc1ccccc1O)c1cccc2c1C(=O)c1ccccc1-2` [Example 35, N-(2-Hydroxy-phenyl)-9-oxo-9H-fluorene-1-carboxamide], the “Caspase activity (Ratio)” value is reported as 1.3. The concentration giving a half-maximal response (EC50) (Homo sapiens, T47D, 24 h) is > 10 µM.

As for `Cc1ccccc1NC(=O)c1cccc2c1C(O)c1ccccc1-2` (stereo not shown) [Example 36, 9-Hydroxy-N-(2-methylphenyl)-9H-fluorene-1-carboxamide], the “Caspase activity (Ratio)” value amounted to 3.3. For the setting “Homo sapiens, T47D, 24 h”, the EC50 stood at 3.7 µM.

As for `O=C(Nc1cccc2ccccc12)c1cccc2c1C(=O)c1ccccc1-2` [N-(1-Naphthalen-1-yl)-9-oxo-9H-fluorene-1-carboxamide], the “Caspase activity (Ratio)” value is recorded as 3.2 and the EC50 was determined as 6 µM.

On to `COC(=O)c1ccccc1NC(=O)c1cccc2c1C(=O)c1ccccc1-2` [N-(2-(Methoxycarbonyl)phenyl)-9-oxo-9H-fluorene-1-carboxamide], for which the “Caspase activity (Ratio)” value is recorded as 7.1. The EC50 (Homo sapiens, T47D, 24 h) was 0.419 µM.

With `O=C(Nc1ccccc1Br)c1cccc2c1C(=O)c1ccccc1-2` [N-(2-Bromophenyl)-9-oxo-9H-fluorene-1-carboxamide], the “Caspase activity (Ratio)” value worked out at 9.1. Under “Homo sapiens, T47D, 24 h”, the EC50 amounted to 3.52 µM.

With `O=C(Nc1ccccc1Cl)c1cccc2c1C(=O)c1ccccc1-2` [N-(2-Cholorophenyl)-9-oxo-9H-fluorene-1-carboxamide], the “Caspase activity (Ratio)” value came to 7.4 and the EC50 was 1.05 µM.

For `N#Cc1ccccc1NC(=O)c1cccc2c1C(=O)c1ccccc1-2` [N-(2-Cyanophenyl)-9-oxo-9H-fluorene-1-carboxamide], the “Caspase activity (Ratio)” value is 2.3. For the setting “Homo sapiens, T47D, 24 h”, the EC50 was found to be 2 µM.

Turning to `O=C(Nc1ccccc1OC(F)F)c1cccc2c1C(=O)c1ccccc1-2` [N-(2-Difluoromethoxyphenyl)-9-oxo-9H-fluorene-1-carboxamide], the “Caspase activity (Ratio)” value is recorded as 5.9. The concentration giving a half-maximal response (EC50) (Homo sapiens, T47D, 24 h) amounted to 0.688 µM.
